We go through one compound from US20240228572A1 (i2o Therapeutics, Inc., priority 2020, published 2024).

One data set concerns the target T1, rat GCGR (Rattus norvegicus, UniProt P30082).
T1 construct: A cDNA fragment encoding the full-length open reading frame of the rat GCGR; expressed in transfected cells; host or cells: CHO-K1, pcDNA3.1+, Lipofectamine 2000
The data set is described as follows: cAMP accumulation assay, CHO-K1 cells expressing rat GCGR. It counts as cell-based. An excerpt:
In the presence of the non-specific cAMP/cGMP phosphodiesterase inhibitor, 3-isobutyl-1-methylxanthine (IBMX), accumulating cAMP can be measured in vitro using common detection methods. Thus, it is possible to estimate an in vitro potency (pEC50) for peptides activating each of these receptors using fit dose-response curves for cAMP accumulation.
A cDNA fragment encoding the full-length open reading frame of the cynomolgus monkey GLP-1R (Genebank accession #XM_028847603 was cloned into pcDNA3.1+ for expression in CHO-K1 cells. A cDNA fragment encoding the full-length open reading frame of the human GCGR (Genebank accession #NM_000160 was cloned into pcDNA3.1+ for expression in CHO-K1 cells. A cDNA fragment encoding the full-length open reading frame of the rat GCGR (Genebank accession #NM_12091 was cloned into pcDNA3.1+ for expression in CHO-K1 cells. A cDNA fragment encoding the full-length open reading frame of the cynomolgus monkey GCGR (Genebank accession #XM_005585255 was cloned into pcDNA3.1+ for expression in CHO-K1 cells. […]
Peptides were serially diluted 4-fold in assay buffer to final concentrations ranging from 1×10^−9 M to 9.5×10^−16 M. Two assay controls consisting of 50 mcM forskolin (cAMP system maximum) or assay buffer only (cAMP system minimum) were also prepared. […] Plates were read on an Envision fluorescent plate reader (PerkinElmer). […]
A general note: cAMP levels reflect the balance of adenylyl cyclase and phosphodiesterase activity.

The nature of data set [1]: Stability in subcutaneous (SC) tissue homogenates, monkey. To be noted: subcutaneous (SC) tissue homogenate, pH 7.4, read-out: (H)SC tissue stability t½ (converted). It counts as in vitro ADME. The procedure: In vitro incubations in subcutaneous (SC) tissue homogenates were used to characterize the ability of peptides to resist pre-systemic degradation by proteases and peptidases after SC administration. In vivo nonclinical studies have shown that peptidase activity in the SC space can limit the bioavailability of a peptide after SC administration. Peptides with high SC bioavailability are stable in this assay, while peptides with low SC bioavailability are unstable in this assay.
Human SC tissue was homogenized in cold 25 mM HEPES buffer (pH 7.4, 10-fold volume based on sample weight), and then filtered through a double layer of cheesecloth. The filtrates were aliquoted, flash frozen on a methanol/dry ice bath and stored at −80° C. The protein concentration of each pooled batch was determined using the BCA protein assay. Thawed stocks of human SC tissue homogenates were diluted to 1.0 mg protein/mL in 25 mM HEPES buffer (pH 7.4) and aliquoted into a 96-well plate. The diluted SC homogenates were pre-warmed for 10 minutes at 37° C. Reactions were initiated by the addition of test peptide (10 mcM final concentration) also dissolved in 25 mM HEPES buffer (pH 7.4). Reactions were maintained at 37° C. in a shaking water bath. […] Samples were analyzed by UPLC-MS/MS.

In a further data set the target is T2, hGIPR (Homo sapiens, UniProt P48546).
T2 sequence (P48546 22-466): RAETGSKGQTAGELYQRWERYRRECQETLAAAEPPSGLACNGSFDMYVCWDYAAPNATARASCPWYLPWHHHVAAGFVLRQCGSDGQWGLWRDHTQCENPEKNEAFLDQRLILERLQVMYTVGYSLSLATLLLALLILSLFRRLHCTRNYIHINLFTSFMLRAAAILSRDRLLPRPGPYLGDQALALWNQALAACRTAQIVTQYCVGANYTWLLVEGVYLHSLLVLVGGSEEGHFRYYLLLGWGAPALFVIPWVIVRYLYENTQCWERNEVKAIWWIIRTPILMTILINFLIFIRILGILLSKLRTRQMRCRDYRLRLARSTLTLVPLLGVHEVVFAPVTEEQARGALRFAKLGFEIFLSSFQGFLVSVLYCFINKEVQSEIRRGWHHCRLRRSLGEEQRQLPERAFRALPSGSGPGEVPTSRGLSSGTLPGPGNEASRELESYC
Nature of the data set: cAMP accumulation assay, hGIPR. It counts as cell-based. Here is the method:
On day 1, CHO-K1 cells were plated at 1.5 million cells per T75 flask in 90% F12-K media supplemented with 10% FBS. On day 3 cells were transfected with 40 mcg of each expression plasmid using Lipofectamine 2000 transfection reagent. On day 5, cells were dispensed at 1000 cells per well in white 384-well OptiPlates in 5 mcL of assay buffer consisting of 1×HBSS, 5 mM HEPES, 0.5 mM IBMX, and 0.1% casein.
Peptides were serially diluted 4-fold in assay buffer to final concentrations ranging from 1×10^−9 M to 9.5×10^−16 M. Two assay controls consisting of 50 mcM forskolin (cAMP system maximum) or assay buffer only (cAMP system minimum) were also prepared. Five microliters of each peptide-concentration, or assay control, was added to triplicate wells and incubated for thirty minutes at room temperature. […] Plates were read on an Envision fluorescent plate reader (PerkinElmer).
Test values were first normalized to the system maximum and system minimum averaged values in Excel using the formula: (test value−system min average)/(system max average -system min average)*100. […] Data from up to 3 replicate tests were analyzed for each peptide. […]

*1 amine or outer side, *2 acyl side, *3 side chain or, on linkers, in order; H or OH if unused. Where a SMILES comes first, the peptide text is derived from it. Side-chain parts run from the residue outwards. [ ]: non-standard residue; d: D form. The star is where a group is joined. C20 diacid = O=C(O)CCCCCCCCCCCCCCCCCCC(=O)*; γGlu = O=C(O)[C@H](CCC(=O)[*:2])N[*:1]; AEEA = NCCOCCOCC(=O)O; Aib = CC(C)(N)C(=O)O

T1 sequence (P30082 27-485): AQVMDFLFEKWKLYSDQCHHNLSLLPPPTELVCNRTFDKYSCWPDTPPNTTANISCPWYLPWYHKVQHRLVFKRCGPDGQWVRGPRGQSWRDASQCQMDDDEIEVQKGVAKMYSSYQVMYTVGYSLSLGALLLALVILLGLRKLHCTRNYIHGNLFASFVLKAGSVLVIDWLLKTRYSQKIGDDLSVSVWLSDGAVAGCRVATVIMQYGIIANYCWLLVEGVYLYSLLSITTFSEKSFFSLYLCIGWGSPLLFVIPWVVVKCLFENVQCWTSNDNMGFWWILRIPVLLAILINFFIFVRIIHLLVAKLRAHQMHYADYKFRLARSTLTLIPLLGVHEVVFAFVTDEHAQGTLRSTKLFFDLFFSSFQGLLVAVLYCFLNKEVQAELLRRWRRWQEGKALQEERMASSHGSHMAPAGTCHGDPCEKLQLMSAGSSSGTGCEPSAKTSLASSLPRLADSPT

For orientation: EC50 means the midpoint of the concentration-response curve. Turning to `CC(C)C[C@H](NC(=O)[C@H](Cc1ccc(O)cc1)NC(=O)[C@H](CCCCN)NC(=O)[C@H](CO)NC(=O)[C@H](Cc1ccc(O)cc1)NC(=O)[C@H](CC(=O)O)NC(=O)[C@H](CO)NC(=O)[C@@H](NC(=O)[C@H](Cc1ccccc1)NC(=O)[C@@H](NC(=O)CNC(=O)[C@H](Cc1c[nH]cn1)NC(=O)[C@H](CO)NC(=O)[C@@H](N)Cc1ccc(O)cc1)[C@@H](C)O)[C@@H](C)O)C(=O)N[C@@H](CC(=O)O)C(=O)NC(C)(C)C(=O)N[C@@H](CCCCN)C(=O)N[C@@H](Cc1ccc(O)cc1)C(=O)N[C@@H](C)C(=O)N[C@@H](CCC(N)=O)C(=O)N[C@@H](CCCCNC(=O)CC[C@H](NC(=O)CC[C@H](NC(=O)COCCOCCNC(=O)CCCCCCCCCCCCCCCCCCC(=O)O)C(=O)O)C(=O)O)C(=O)N[C@@H](Cc1ccccc1)C(=O)N[C@H](C(=O)NC(C)(C)C(=O)N[C@@H](Cc1c[nH]c2ccccc12)C(=O)N[C@@H](CC(C)C)C(=O)N[C@@H](CCC(=O)O)C(=O)N[C@@H](CC(=O)O)C(=O)N[C@@H](CCC(=O)O)C(=O)N1CCC[C@H]1C(=O)N[C@@H](CO)C(=O)N[C@@H](CO)C(=O)NCC(=O)N[C@@H](C)C(=O)N1CCC[C@H]1C(=O)N1CCC[C@H]1C(=O)N1CCC[C@H]1C(=O)N[C@@H](CO)C(=O)O)C(C)C` [Compound A6] (H-YSHGTFTSDYSKYLD[Aib]KYAQK([γGlu-γGlu-AEEA-C20 diacid])FV[Aib]WLEDEPSSGAPPPS-OH; N-terminus assumed), the EC50 was 0.0501 nM at rat GCGR and more than 1 nM on hGIPR. The half-life at 10 mcM in data set [1] was 5 h.
